Laboratory results: ChEMBL document CHEMBL4813950, “Comparing the efficacy and selectivity of Ck2 inhibitors. A phosphoproteomics approach” (Eur J Med Chem, 2021)

Tests used:
Type in all cases: cell-based
Striatin (Mus musculus) = Striatin (Mus musculus) (UniProt O55106); assay: Inhibition of Stria-tin in mouse C2C12 cells assessed as reduction in phospho-sites occupancy at 4 uM after 5 hrs by SILAC based LC-MS/MS analysis relative to control
[1] = biological target: WASH complex subunit 2 (Mus musculus) (UniProt Q6PGL7); assay: Inhibition of Washc2 in mouse C2C12 cells assessed as reduction in phospho-sites occupancy at 4 uM after 5 hrs by SILAC based LC-MS/MS analysis relative to control
[2] = biological target: Catenin alpha-1 (Mus musculus) (UniProt P26231); assay: Inhibition of catenin alpha-1 in mouse C2C12 cells assessed as reduction in phospho-sites occupancy at 4 uM after 5 hrs by SILAC based LC-MS/MS analysis relative to control
[3] = biological target: DNA polymerase delta subunit 3 (Mus musculus) (UniProt Q9EQ28); assay: Inhibition of Pold3 in mouse C2C12 cells assessed as reduction in phospho-sites occupancy at 4 uM after 5 hrs by SILAC based LC-MS/MS analysis relative to control
[4] = biological target: Transcriptional regulator ATRX (Mus musculus) (UniProt Q61687); assay: Inhibition of ATRX in mouse C2C12 cells assessed as reduction in phospho-sites occupancy at 4 uM after 5 hrs by SILAC based LC-MS/MS analysis relative to control
[5] = biological target: Phosducin-like protein 3 (Mus musculus) (UniProt Q8BVF2); assay: Inhibition of Phosducin-like protein 3 in mouse C2C12 cells assessed as reduction in phospho-sites occupancy at 4 uM after 5 hrs by SILAC based LC-MS/MS analysis relative to control
[6] = biological target: Protein transport protein Sec31A (Mus musculus) (UniProt Q3UPL0); assay: Inhibition of Sec31a in mouse C2C12 cells assessed as reduction in phospho-sites occupancy at 4 uM after 5 hrs by SILAC based LC-MS/MS analysis relative to control
[7] = biological target: Nucleoprotein TPR (Mus musculus) (UniProt F6ZDS4); assay: Inhibition of nucleoprotein TPR in mouse C2C12 cells assessed as reduction in phospho-sites occupancy at 4 uM after 5 hrs by SILAC based LC-MS/MS analysis relative to control
[8] = biological target: Serine/threonine-protein phosphatase 6 regulatory subunit 3 (Mus musculus) (UniProt Q922D4); assay: Inhibition of Ppp6r3 in mouse C2C12 cells assessed as reduction in phospho-sites occupancy at 4 uM after 5 hrs by SILAC based LC-MS/MS analysis relative to control
Sequence of Serine/threonine-protein phosphatase 6 regulatory subunit 3 (Mus musculus) (Q922D4 whole entry): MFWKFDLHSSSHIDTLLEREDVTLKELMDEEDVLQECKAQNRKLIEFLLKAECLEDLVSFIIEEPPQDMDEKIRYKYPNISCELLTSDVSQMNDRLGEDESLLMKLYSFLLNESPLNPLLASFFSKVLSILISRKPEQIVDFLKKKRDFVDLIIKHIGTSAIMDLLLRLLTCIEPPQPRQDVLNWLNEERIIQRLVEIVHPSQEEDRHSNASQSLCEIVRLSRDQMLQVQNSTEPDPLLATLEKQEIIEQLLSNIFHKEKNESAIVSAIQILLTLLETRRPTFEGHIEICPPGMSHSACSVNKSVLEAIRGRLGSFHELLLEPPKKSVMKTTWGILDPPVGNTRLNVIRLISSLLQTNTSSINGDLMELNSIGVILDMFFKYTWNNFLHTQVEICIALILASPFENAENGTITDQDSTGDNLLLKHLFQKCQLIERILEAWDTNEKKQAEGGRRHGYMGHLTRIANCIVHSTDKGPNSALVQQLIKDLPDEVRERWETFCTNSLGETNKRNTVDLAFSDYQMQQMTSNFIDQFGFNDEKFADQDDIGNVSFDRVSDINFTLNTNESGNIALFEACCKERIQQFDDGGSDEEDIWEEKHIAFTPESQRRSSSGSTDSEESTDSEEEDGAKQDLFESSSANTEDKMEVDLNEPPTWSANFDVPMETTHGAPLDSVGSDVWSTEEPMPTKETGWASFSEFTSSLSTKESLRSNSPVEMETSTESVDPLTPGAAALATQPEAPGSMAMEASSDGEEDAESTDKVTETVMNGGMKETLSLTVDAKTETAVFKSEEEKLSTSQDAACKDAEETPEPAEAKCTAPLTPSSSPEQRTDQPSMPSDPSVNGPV

[9] = biological target: tRNA (guanine(26)-N(2))-dimethyltransferase (Mus musculus) (UniProt Q3TX08); assay: Inhibition of Trmt1 in mouse C2C12 cells assessed as reduction in phospho-sites occupancy at 4 uM after 5 hrs by SILAC based LC-MS/MS analysis relative to control
[10] = biological target: Protein IMPACT (Mus musculus) (UniProt O55091); assay: Inhibition of Impact in mouse C2C12 cells assessed as reduction in phospho-sites occupancy at 4 uM after 5 hrs by SILAC based LC-MS/MS analysis relative to control
[11] = biological target: Nucleolar protein 56 (Mus musculus) (UniProt Q9D6Z1); assay: Inhibition of Nop56 in mouse C2C12 cells assessed as reduction in phospho-sites occupancy at 4 uM after 5 hrs by SILAC based LC-MS/MS analysis relative to control
Sequence of Nucleolar protein 56 (Mus musculus) (Q9D6Z1 whole entry, the tested form may be a part): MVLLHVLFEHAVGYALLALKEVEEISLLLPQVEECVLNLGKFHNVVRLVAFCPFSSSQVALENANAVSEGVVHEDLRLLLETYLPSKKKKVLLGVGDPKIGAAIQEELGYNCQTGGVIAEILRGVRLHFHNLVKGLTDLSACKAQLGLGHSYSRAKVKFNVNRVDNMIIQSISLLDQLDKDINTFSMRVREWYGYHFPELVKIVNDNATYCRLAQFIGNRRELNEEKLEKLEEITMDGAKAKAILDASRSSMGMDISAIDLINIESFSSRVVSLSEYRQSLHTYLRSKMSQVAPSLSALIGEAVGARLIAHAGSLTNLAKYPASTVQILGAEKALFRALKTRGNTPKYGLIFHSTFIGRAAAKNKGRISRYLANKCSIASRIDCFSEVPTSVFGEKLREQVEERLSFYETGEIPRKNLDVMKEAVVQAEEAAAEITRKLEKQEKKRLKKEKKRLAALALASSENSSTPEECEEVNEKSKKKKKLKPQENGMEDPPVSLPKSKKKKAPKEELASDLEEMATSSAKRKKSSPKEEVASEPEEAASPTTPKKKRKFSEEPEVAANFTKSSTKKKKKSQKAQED

[12] = biological target: Pleckstrin homology-like domain family B member 1 (Mus musculus) (UniProt Q6PDH0); assay: Inhibition of Phldb1 in mouse C2C12 cells assessed as reduction in phospho-sites occupancy at 4 uM after 5 hrs by SILAC based LC-MS/MS analysis relative to control
[13] = biological target: Acetyl-CoA carboxylase 1 (Mus musculus) (UniProt Q5SWU9); assay: Inhibition of Acetyl-CoA carboxylase 1 in mouse C2C12 cells assessed as reduction in phospho-sites occupancy at 4 uM after 5 hrs by SILAC based LC-MS/MS analysis relative to control
[14] = biological target: Small ubiquitin-related modifier 1 (Mus musculus) (UniProt P63166); assay: Inhibition of Sumo1 in mouse C2C12 cells assessed as reduction in phospho-sites occupancy at 4 uM after 5 hrs by SILAC based LC-MS/MS analysis relative to control
Sequence of Small ubiquitin-related modifier 1 (Mus musculus) (P63166 whole entry): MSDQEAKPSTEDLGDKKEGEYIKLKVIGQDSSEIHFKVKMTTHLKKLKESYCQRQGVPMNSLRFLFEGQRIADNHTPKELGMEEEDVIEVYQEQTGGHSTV

[15] = biological target: Eukaryotic translation initiation factor 2 subunit 2 (Mus musculus) (UniProt Q99L45); assay: Inhibition of eukaryotic translation initiation factor 2 subunit 2 in mouse C2C12 cells assessed as reduction in phospho-sites occupancy at 4 uM after 5 hrs by SILAC based LC-MS/MS analysis relative to control
[16] = biological target: Centrosomal protein of 170 kDa (Mus musculus) (UniProt Q6A065); assay: Inhibition of Cep170 in mouse C2C12 cells assessed as reduction in phospho-sites occupancy at 4 uM after 5 hrs by SILAC based LC-MS/MS analysis relative to control
Sequence of Centrosomal protein of 170 kDa (Mus musculus) (Q6A065 whole entry): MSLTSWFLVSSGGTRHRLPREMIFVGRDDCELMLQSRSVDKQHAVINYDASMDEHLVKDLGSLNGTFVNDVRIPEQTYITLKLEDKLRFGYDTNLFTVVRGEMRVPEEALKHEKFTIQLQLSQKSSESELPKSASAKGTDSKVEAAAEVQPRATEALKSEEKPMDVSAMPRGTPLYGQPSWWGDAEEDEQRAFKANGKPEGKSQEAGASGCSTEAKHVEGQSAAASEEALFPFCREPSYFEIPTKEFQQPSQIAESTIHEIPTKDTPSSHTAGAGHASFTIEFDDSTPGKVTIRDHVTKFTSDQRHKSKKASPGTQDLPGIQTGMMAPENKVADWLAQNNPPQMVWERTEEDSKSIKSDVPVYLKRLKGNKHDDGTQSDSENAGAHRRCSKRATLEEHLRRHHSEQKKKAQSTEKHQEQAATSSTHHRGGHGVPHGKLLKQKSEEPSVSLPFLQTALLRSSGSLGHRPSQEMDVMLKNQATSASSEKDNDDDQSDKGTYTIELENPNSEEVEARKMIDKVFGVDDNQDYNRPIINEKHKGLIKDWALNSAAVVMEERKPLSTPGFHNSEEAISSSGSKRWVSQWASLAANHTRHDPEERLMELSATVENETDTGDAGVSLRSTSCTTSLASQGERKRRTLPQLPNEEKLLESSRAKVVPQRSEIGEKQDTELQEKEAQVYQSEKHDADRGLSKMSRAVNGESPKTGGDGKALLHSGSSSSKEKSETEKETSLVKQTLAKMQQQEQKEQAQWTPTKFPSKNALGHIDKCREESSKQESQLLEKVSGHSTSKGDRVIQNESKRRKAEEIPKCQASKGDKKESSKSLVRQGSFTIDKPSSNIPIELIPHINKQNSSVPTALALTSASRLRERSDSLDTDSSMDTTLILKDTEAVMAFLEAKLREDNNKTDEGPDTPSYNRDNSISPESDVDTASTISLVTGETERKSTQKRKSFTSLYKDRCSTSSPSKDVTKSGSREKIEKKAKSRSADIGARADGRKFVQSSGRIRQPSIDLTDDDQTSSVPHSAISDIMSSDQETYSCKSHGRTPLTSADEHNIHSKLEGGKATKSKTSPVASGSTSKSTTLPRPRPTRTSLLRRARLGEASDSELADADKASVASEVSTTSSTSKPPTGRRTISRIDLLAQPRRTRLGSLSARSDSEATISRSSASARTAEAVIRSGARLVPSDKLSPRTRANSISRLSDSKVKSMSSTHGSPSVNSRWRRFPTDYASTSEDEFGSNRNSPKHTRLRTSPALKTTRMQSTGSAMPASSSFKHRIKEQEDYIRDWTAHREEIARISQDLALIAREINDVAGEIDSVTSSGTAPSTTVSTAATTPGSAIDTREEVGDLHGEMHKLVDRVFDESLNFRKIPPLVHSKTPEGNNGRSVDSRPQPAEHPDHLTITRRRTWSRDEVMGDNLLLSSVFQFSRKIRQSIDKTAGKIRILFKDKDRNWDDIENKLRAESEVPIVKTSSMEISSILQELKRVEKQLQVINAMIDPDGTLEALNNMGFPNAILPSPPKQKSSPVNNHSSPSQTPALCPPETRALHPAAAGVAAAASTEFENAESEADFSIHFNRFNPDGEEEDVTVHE

[17] = biological target: WD repeat and HMG-box DNA-binding protein 1 (Mus musculus) (UniProt P59328); assay: Inhibition of Wdhd1 in mouse C2C12 cells assessed as reduction in phospho-sites occupancy at 4 uM after 5 hrs by SILAC based LC-MS/MS analysis relative to control
Sequence of WD repeat and HMG-box DNA-binding protein 1 (Mus musculus) (P59328 whole entry): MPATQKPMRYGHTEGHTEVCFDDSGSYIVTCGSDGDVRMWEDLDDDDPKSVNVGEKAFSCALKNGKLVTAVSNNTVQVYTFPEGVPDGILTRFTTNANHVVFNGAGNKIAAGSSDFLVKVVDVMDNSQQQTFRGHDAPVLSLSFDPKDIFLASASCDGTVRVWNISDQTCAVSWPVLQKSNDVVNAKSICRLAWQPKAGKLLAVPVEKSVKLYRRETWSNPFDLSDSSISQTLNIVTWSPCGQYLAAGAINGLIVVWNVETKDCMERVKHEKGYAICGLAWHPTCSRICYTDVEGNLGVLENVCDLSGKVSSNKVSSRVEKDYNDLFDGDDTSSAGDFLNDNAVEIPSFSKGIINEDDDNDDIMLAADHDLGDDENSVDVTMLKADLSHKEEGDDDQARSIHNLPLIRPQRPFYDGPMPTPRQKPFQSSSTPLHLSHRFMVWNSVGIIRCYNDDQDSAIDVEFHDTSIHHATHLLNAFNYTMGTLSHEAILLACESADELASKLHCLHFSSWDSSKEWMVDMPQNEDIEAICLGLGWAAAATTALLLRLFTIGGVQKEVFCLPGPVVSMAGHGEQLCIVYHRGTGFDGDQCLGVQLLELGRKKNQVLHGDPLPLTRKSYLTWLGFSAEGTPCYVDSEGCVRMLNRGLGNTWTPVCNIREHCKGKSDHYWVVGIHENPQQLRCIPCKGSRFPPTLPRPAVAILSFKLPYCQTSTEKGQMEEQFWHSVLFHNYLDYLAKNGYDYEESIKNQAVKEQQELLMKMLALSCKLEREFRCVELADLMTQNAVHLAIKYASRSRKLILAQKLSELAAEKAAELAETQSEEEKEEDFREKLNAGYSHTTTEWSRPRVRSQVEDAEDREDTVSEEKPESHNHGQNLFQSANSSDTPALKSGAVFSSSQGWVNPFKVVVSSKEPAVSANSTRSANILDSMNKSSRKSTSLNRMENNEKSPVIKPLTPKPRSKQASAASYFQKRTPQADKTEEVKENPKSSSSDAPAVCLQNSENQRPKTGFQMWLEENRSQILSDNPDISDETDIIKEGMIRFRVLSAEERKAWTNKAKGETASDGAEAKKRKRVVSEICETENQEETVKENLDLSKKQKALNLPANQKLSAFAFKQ

[18] = biological target: Tight junction protein 2 (Mus musculus) (UniProt Q9Z0U1); assay: Inhibition of Tjp2 in mouse C2C12 cells assessed as reduction in phospho-sites occupancy at 4 uM after 5 hrs by SILAC based LC-MS/MS analysis relative to control
[19] = biological target: Lamina-associated polypeptide 2, isoforms beta/delta/epsilon/gamma (Mus musculus) (UniProt Q61029); assay: Inhibition of LAP2B epsilon in mouse C2C12 cells assessed as reduction in phospho-sites occupancy at 4 uM after 5 hrs by SILAC based LC-MS/MS analysis relative to control
Sequence of Lamina-associated polypeptide 2, isoforms beta/delta/epsilon/gamma (Mus musculus) (Q61029 whole entry, canonical isoform): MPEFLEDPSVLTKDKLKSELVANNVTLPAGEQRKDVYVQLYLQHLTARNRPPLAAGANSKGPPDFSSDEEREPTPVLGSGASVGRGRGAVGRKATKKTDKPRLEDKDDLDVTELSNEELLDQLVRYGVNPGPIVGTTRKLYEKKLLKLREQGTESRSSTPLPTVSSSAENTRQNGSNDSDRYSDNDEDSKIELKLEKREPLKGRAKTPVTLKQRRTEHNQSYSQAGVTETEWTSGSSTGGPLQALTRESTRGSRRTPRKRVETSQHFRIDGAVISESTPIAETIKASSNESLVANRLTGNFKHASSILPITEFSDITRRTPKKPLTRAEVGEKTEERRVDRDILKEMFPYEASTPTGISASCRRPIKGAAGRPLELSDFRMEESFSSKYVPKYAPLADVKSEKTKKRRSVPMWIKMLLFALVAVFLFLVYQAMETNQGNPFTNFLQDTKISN

[20] = biological target: La-related protein 1 (Mus musculus) (UniProt Q6ZQ58); assay: Inhibition of Larp1 in mouse C2C12 cells assessed as reduction in phospho-sites occupancy at 4 uM after 5 hrs by SILAC based LC-MS/MS analysis relative to control
[21] = biological target: Eukaryotic translation initiation factor 5B (Mus musculus) (UniProt Q05D44); assay: Inhibition of eukaryotic translation initiation factor 5B in mouse C2C12 cells assessed as reduction in phospho-sites occupancy at 4 uM after 5 hrs by SILAC based LC-MS/MS analysis relative to control
[22] = biological target: Serine/arginine repetitive matrix protein 1 (Mus musculus) (UniProt Q52KI8); assay: Inhibition of Srrm1 in mouse C2C12 cells assessed as reduction in phospho-sites occupancy at 4 uM after 5 hrs by SILAC based LC-MS/MS analysis relative to control
[23] = biological target: Enhancer of mRNA-decapping protein 4 (Mus musculus) (UniProt Q3UJB9); assay: Inhibition of Edc4 in mouse C2C12 cells assessed as reduction in phospho-sites occupancy at 4 uM after 5 hrs by SILAC based LC-MS/MS analysis relative to control
[24] = biological target: Cyclin-dependent kinase 4 (Mus musculus) (UniProt P30285); assay: Inhibition of Cdk4 in mouse C2C12 cells assessed as reduction in phospho-sites occupancy at 4 uM after 5 hrs by SILAC based LC-MS/MS analysis relative to control
Sequence of Cyclin-dependent kinase 4 (Mus musculus) (P30285 whole entry): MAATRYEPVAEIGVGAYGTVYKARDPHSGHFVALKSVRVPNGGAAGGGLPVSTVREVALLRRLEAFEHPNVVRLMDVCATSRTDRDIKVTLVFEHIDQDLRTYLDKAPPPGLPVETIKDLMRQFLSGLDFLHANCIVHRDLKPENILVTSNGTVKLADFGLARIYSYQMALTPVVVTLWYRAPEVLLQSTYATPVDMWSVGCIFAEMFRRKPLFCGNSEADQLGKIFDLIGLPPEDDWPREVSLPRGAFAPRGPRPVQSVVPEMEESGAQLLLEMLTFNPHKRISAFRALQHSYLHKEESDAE

COc1cc(/C=N/n2c(SC)nnc2-c2ccccc2)c(Br)cc1O
fold change (FC) (Striatin (Mus musculus)): 2.25
fold change (FC) [1]: 4.17
fold change (FC) [2]: 1.59
fold change (FC) [3]: 1.66
fold change (FC) [4]: 2.83
fold change (FC) [5]: 4.01
fold change (FC) [6]: 2.98
fold change (FC) [7]: 1.51
fold change (FC) [8]: 1.75
fold change (FC) [9]: 1.86
fold change (FC) [10]: 3.44
fold change (FC) [11]: 1.5
fold change (FC) [12]: 3.3
fold change (FC) [13]: 2.73
fold change (FC) [14]: 1.75
fold change (FC) [15]: 1.6
fold change (FC) [16]: 1.86
fold change (FC) [17]: 1.66
fold change (FC) [18]: 3.31
fold change (FC) [19]: 3.86
fold change (FC) [20]: 3.25
fold change (FC) [21]: 1.55
fold change (FC) [22]: 2.36
fold change (FC) [23]: 2.17
fold change (FC) [24]: 3.97
